Measurements from the supplement of paper PMC10307832.

Tests used:
Experiment in all cases: relative viability (nuclei count vs DMSO), 5 days (fraction); higher = more cells survive
KIN001-266 = compound: CCN1CCC(CC1)N2C=C(N=N2)CNC3=CC4=C(C(=CN=C4C(=C3)Cl)C#N)NC5=CC(=C(C=C5)F)Cl [KIN001-266]
How it was run: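 Five library-drug doses spaced by √10 were pinned onto vehicle-anchored 1536-well plates of lung cancer cell lines that had been kept overnight at 37 °C. Cells went 5 days without medium change, then were fixed, permeabilised and Hoechst-stained together, imaged at 4× and counted by MetaXpress. Viability is the ratio of treated-well to vehicle-well nuclei, taken as a median over plates. Plates required control CV below 25% and at least one doubling.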

KIN001-266 + Trametinib = compound: CCN1CCC(CC1)N2C=C(N=N2)CNC3=CC4=C(C(=CN=C4C(=C3)Cl)C#N)NC5=CC(=C(C=C5)F)Cl [KIN001-266] + CC(=O)Nc1cccc(-n2c(=O)n(C3CC3)c(=O)c3c(Nc4ccc(I)cc4F)n(C)c(=O)c(C)c32)c1 [Trametinib] (partner 0.02 µM)
How it was run: (§1)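 Dosing by pin tool came one day after lung cancer cell lines were seeded in 1536-well plates, using either one drug or a fixed anchor-drug dose plus five library-drug doses (not always all listed) in √10 steps. After 5 days, nuclei were counted on 4× images. Relative viability is treated-well nuclei count divided by vehicle-well nuclei count, and values are medians of duplicate plates.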

KIN001-266 + Phenformin = compound: CCN1CCC(CC1)N2C=C(N=N2)CNC3=CC4=C(C(=CN=C4C(=C3)Cl)C#N)NC5=CC(=C(C=C5)F)Cl [KIN001-266] + N=C(N)NC(=N)NCCc1ccccc1 [Phenformin] (partner 250 µM)
How it was run: as §1

KIN001-266 + Olaparib = compound: CCN1CCC(CC1)N2C=C(N=N2)CNC3=CC4=C(C(=CN=C4C(=C3)Cl)C#N)NC5=CC(=C(C=C5)F)Cl [KIN001-266] + O=C(c1cc(Cc2n[nH]c(=O)c3ccccc23)ccc1F)N1CCN(C(=O)C2CC2)CC1 [Olaparib] (partner 8 µM)
How it was run: as §1

Cell Line	relative viability (KIN001-266; 0.08 µM)	relative viability (KIN001-266; 0.253 µM)	relative viability (KIN001-266; 0.8 µM)	relative viability (KIN001-266; 2.53 µM)	relative viability (KIN001-266; 8 µM)	relative viability (KIN001-266 + Trametinib; first compound 0.08 µM)	relative viability (KIN001-266 + Trametinib; first compound 0.253 µM)	relative viability (KIN001-266 + Trametinib; first compound 0.8 µM)	relative viability (KIN001-266 + Trametinib; first compound 2.53 µM)	relative viability (KIN001-266 + Trametinib; first compound 8 µM)	relative viability (KIN001-266 + Phenformin; first compound 0.08 µM)	relative viability (KIN001-266 + Phenformin; first compound 0.253 µM)	relative viability (KIN001-266 + Phenformin; first compound 0.8 µM)	relative viability (KIN001-266 + Phenformin; first compound 2.53 µM)	relative viability (KIN001-266 + Phenformin; first compound 8 µM)	relative viability (KIN001-266 + Olaparib; first compound 0.08 µM)	relative viability (KIN001-266 + Olaparib; first compound 0.253 µM)	relative viability (KIN001-266 + Olaparib; first compound 0.8 µM)	relative viability (KIN001-266 + Olaparib; first compound 2.53 µM)	relative viability (KIN001-266 + Olaparib; first compound 8 µM)
NCI-H1975	0.989	0.97	0.966	1.03	0.965	0.435	0.343	0.346	0.461	0.325	0.416	0.402	0.431	0.422	0.36	0.823	0.81	0.791	0.734	0.69
LK-2	1.14	0.885	1.2	0.969	1.12	0.891	0.781	0.877	0.847	0.721	0.538	0.352	0.342	0.281	0.288	0.879	0.689	0.672	0.557	0.574
NCI-H661	0.956	0.997	1.01	0.958	1.01	0.566	0.624	0.595	0.5	0.435	0.297	0.278	0.284	0.263	0.258	0.741	0.732	0.707	0.617	0.459
NCI-H2342	1.02	0.971	0.958	0.965	1.1	0.922	0.868	0.848	1.01	1.22	0.638	0.572	0.537	0.531	0.642	0.547	0.4	0.427	0.407	0.419
HCC-366	1.02	1.01	0.992	1.01	0.969	0.446	0.468	0.32	0.334	0.277	0.657	0.644	0.596	0.567	0.509	0.403	0.339	0.271	0.3	0.227
HOP-62	1.01	1.05	1.02	1.02	0.995	0.391	0.387	0.379	0.311	0.293	0.683	0.694	0.688	0.734	0.629	0.5	0.475	0.381	0.46	0.319
NCI-H1944	1.07	0.972	0.919	1.02	0.974	0.419	0.401	0.324	0.393	0.41	0.208	0.194	0.186	0.199	0.164	0.411	0.403	0.346	0.411	0.326
SW 1573	1.07	0.899	1.04	0.924	0.689	0.575	0.493	0.603	0.557	0.464	0.347	0.425	0.334	0.262	0.165	0.459	0.5	0.542	0.404	0.313
LU99A	0.985	0.952	0.958	0.847	0.849	0.546	0.489	0.494	0.552	0.458	0.971	0.805	0.815	0.649	0.682	0.271	0.283	0.2	0.213	0.164
NCI-H647	1.03	1.01	1.11	0.94	0.942	0.452	0.443	0.474	0.419	0.375	0.65	0.552	0.557	0.468	0.426	0.565	0.516	0.701	0.501	0.301
A-427	1.04	1.06	1.05	0.928	0.953	0.823	0.73	0.711	0.618	0.658	0.357	0.307	0.289	0.275	0.247	0.723	0.789	0.726	0.615	0.639
EBC-1	1.04	1.02	0.954	0.988	0.704	–	–	–	–	–	–	–	–	–	–	0.76	0.72	0.635	0.649	0.511
NCI-H1648	0.853	0.859	0.893	0.823	0.966	0.564	0.508	0.552	0.46	0.61	–	–	–	–	–	1	0.711	0.816	0.55	0.996
ABC-1	1.03	1.11	1.12	0.959	0.774	–	–	–	–	–	0.255	0.241	0.283	0.251	0.312	0.737	0.583	0.767	0.795	0.863
NCI-H1563	0.958	1	1.02	1.04	0.972	–	–	–	–	–	0.663	0.694	0.669	0.583	0.62	–	–	–	–	–
NCI-H1299	0.987	0.996	1	0.928	0.869	–	–	–	–	–	–	–	–	–	–	0.941	1.03	0.933	0.859	0.775
A549	1.02	0.974	1.03	0.891	0.939	–	–	–	–	–	0.22	0.178	0.131	0.14	0.14	0.367	0.279	0.297	0.347	0.305
IA-LM	0.95	0.956	0.888	1	0.931	–	–	–	–	–	–	–	–	–	–	0.884	0.791	0.845	0.853	0.625
Calu-6	0.995	1.04	1.02	0.969	0.798	–	–	–	–	–	–	–	–	–	–	0.649	0.653	0.587	0.542	0.365
